Source: PubChem BioAssay (NCI)
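Growth conditions: 96-well plates. Treatment: test compound, 48 hours, 5 concentrations. Analysis: linear interpolation between bracketing concentrations; unreached endpoints set to highest concentration. TGI is the concentration that stops growth completely.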

What was measured:
Assay in all cases: inhibition of tumour cell growth, NCI panel, 48 h
UO-31 renal = system: UO-31 renal
SNB-78 CNS = system: SNB-78 CNS
IGROV1 ovarian = system: IGROV1 ovarian
CCRF-CEM leukemia = system: CCRF-CEM leukemia
DMS 114 small cell lung = system: DMS 114 small cell lung
ACHN renal = system: ACHN renal
U251 CNS = system: U251 CNS
EKVX NSCLC = system: EKVX NSCLC
SNB-19 CNS = system: SNB-19 CNS
HL-60(TB) leukemia = system: HL-60(TB) leukemia
RXF-631 renal = system: RXF-631 renal
OVCAR-5 ovarian = system: OVCAR-5 ovarian
NCI-H23 lung = system: NCI-H23 lung
SK-OV-3 ovarian = system: SK-OV-3 ovarian
TK-10 renal = system: TK-10 renal
NCI-H522 lung = system: NCI-H522 lung
HOP-92 NSCLC = system: HOP-92 NSCLC
SK-MEL-28 melanoma = system: SK-MEL-28 melanoma
HCT-116 colon = system: HCT-116 colon
KM12 colon = system: KM12 colon
MOLT-4 leukemia = system: MOLT-4 leukemia
UACC-62 melanoma = system: UACC-62 melanoma
A549 NSCLC = system: A549 NSCLC
SF-268 CNS = system: SF-268 CNS
RXF 393 renal = system: RXF 393 renal
SR leukemia = system: SR leukemia
HCC-2998 colon = system: HCC-2998 colon
HOP-62 NSCLC = system: HOP-62 NSCLC
SNB-75 CNS = system: SNB-75 CNS
DLD-1 colon = system: DLD-1 colon
HT29 colon = system: HT29 colon
M14 melanoma = system: M14 melanoma
M19-MEL melanoma = system: M19-MEL melanoma
SK-MEL-5 melanoma = system: SK-MEL-5 melanoma
A498 renal = system: A498 renal
NCI-H460 lung = system: NCI-H460 lung
OVCAR-3 ovarian = system: OVCAR-3 ovarian
OVCAR-4 ovarian = system: OVCAR-4 ovarian
CAKI-1 renal = system: CAKI-1 renal
LXFL 529 NSCLC = system: LXFL 529 NSCLC
K-562 leukemia = system: K-562 leukemia
NCI-H226 lung = system: NCI-H226 lung
SK-MEL-2 melanoma = system: SK-MEL-2 melanoma
SF-295 CNS = system: SF-295 CNS
UACC-257 melanoma = system: UACC-257 melanoma
SN12C renal = system: SN12C renal
HCT-15 colon = system: HCT-15 colon
KM20L2 colon = system: KM20L2 colon
MALME-3M melanoma = system: MALME-3M melanoma
SF-539 CNS = system: SF-539 CNS
DMS 273 small cell lung = system: DMS 273 small cell lung
HOP-18 NSCLC = system: HOP-18 NSCLC
LOX IMVI melanoma = system: LOX IMVI melanoma
SW-620 colon = system: SW-620 colon
RPMI-8226 leukemia = system: RPMI-8226 leukemia
OVCAR-8 ovarian = system: OVCAR-8 ovarian
COLO 205 colon = system: COLO 205 colon
786-0 renal = system: 786-0 renal

Measured: TGI

C=CC1C2=C(C(=O)NCC2)C2OC(O)C3=C(CCNC3=O)C2C1C (stereo unspecified)
> 100 µM: UO-31 renal | SNB-78 CNS | IGROV1 ovarian | CCRF-CEM leukemia | DMS 114 small cell lung | ACHN renal | U251 CNS | EKVX NSCLC | SNB-19 CNS | HL-60(TB) leukemia | RXF-631 renal | OVCAR-5 ovarian | NCI-H23 lung | SK-OV-3 ovarian | TK-10 renal | NCI-H522 lung | HOP-92 NSCLC | SK-MEL-28 melanoma | HCT-116 colon | KM12 colon | MOLT-4 leukemia | UACC-62 melanoma | A549 NSCLC | SF-268 CNS | RXF 393 renal | SR leukemia

CCCCCCC(=O)C/C(CCC(=O)N(Cc1ccccc1)Cc1ccccc1)=N\Nc1ccc([N+](=O)[O-])cc1[N+](=O)[O-]
56.1 µM: CCRF-CEM leukemia
58.2 µM: K-562 leukemia
40.6 µM: DMS 114 small cell lung
not listed: RXF-631 renal | MOLT-4 leukemia | SR leukemia
> 100 µM: all other assays above
